Measurements taken from paper PMC9138505, “Small Molecule 20S Proteasome Enhancer Regulates MYC Protein Stability and Exhibits Antitumor Activity in Multiple Myeloma” (Biomedicines, 2022).
Several values for one entry are separate records, joined by “and”; a condition that tells them apart may be missing. Identical values can stand only once.

Test system: RPMI-8226 cells
Assay: Gene expression profiling, NanoString nCounter PanCancer Pathways Panel, ROSALIND analysis
Type: cell-based, human
Description: RPMI-8226 cells were treated with vehicle or TCH-165 (10 μM) for 4 h. Total RNA was obtained using the mirVana miRNA Isolation Kit, with phenol (Thermofisher Scientific; AM1560; Waltham, MA, USA). Total RNA was quantified by Qubit (Thermofisher Scientific; Q32855; Waltham, MA, USA). and gene expression was evaluated against the nCounter® PanCancer Pathways Panel^TM according to the standard NanoString protocol.
Data were analyzed by ROSALIND® [36] with a hyperscale architecture developed by ROSALIND, Inc. (San Diego, CA, USA). Normalization, fold changes and p-values were calculated using criteria provided by NanoString. ROSALIND follows the nCounter® Advanced Analysis protocol of dividing counts within a lane by the geometric mean of the normalizer probes from the same lane. Housekeeping probes to be used for normalization are selected based on the geNorm algorithm, as implemented in the NormqPCR R library. Fold changes and p-values are calculated using the fast method as described in the nCounter Advanced Analysis 2.0 User Manual. The p-value adjustment is performed using the Benjamini–Hochberg method of estimating false discovery rates (FDR). Clustering of genes for the final heatmap of differentially expressed genes was done using the PAM (Partitioning Around Medoids) method using the fpc R library. Hypergeometric distribution was used to analyze the enrichment of pathways, gene ontology, domain structure and other ontologies. The topGO R library was used to determine local similarities and dependencies between GO terms in order to perform Elim pruning correction. Several database sources were referenced for enrichment analysis, including Interpro [40], NCBI [41], MSigDB [42, 43], REACTOME [44], WikiPathways. Enrichment was calculated relative to a set of background genes relevant to the experiment.

[1] = RPMI-8226 cells, TCH-165 treatment samples 1-3

SMILES: CCOC(=O)[C@]1(c2ccccc2)N=C(c2ccc(OC)cc2)N(Cc2ccccc2)[C@@H]1c1ccc(NCc2ccccc2)cc1 [TCH-165]
- VEGFC normalized gene expression (RPMI-8226, TCH-165 samples 1-3): 4.571 and 4.699 and 4.731
- VHL normalized gene expression (RPMI-8226, TCH-165 samples 1-3): 9.098 and 9.164 and 9.268
- WEE1 normalized gene expression (RPMI-8226, TCH-165 samples 1-3): 9.934 and 9.744 and 9.778
- WHSC1L1 normalized gene expression (RPMI-8226, TCH-165 samples 1-3): 9.091 and 9.1675 and 9.063
- WHSC1 normalized gene expression (RPMI-8226, TCH-165 samples 1-3): 9.949 and 9.835 and 9.719
- WIF1 normalized gene expression (RPMI-8226, TCH-165 samples 1-3): 5.758 and 4.855 and 4.805
- WNT2B normalized gene expression (RPMI-8226, TCH-165 samples 1-3): 5.308 and 4.427 and 4.528
- WNT2 normalized gene expression (RPMI-8226, TCH-165 samples 1-3): 5.827 and 5.242 and 5.592
- WNT3 normalized gene expression (RPMI-8226, TCH-165 samples 1-3): 5.044 and 4.7789 and 4.9095
- WNT4 normalized gene expression (RPMI-8226, TCH-165 samples 1-3): 4.488 and 3.817 and 3.5707
- WNT5A normalized gene expression (RPMI-8226, TCH-165 samples 1-3): 6.308 and 6.154 and 6.184
- WNT6 normalized gene expression (RPMI-8226, TCH-165 samples 1-3): 4.924 and 4.739 and 4.437
- WNT7A normalized gene expression (RPMI-8226, TCH-165 samples 1-3): 5.208 and 4.962 and 4.9095
- WNT7B normalized gene expression (RPMI-8226, TCH-165 samples 1-3): 3.723 and 3.27 and 3.805
- WNT10B normalized gene expression (RPMI-8226, TCH-165 samples 1-3): 5.259 and 5.27 and 5.211
- WNT11 normalized gene expression (RPMI-8226, TCH-165 samples 1-3): 4.308 and 4.154 and 3.876
- WNT16 normalized gene expression (RPMI-8226, TCH-165 samples 1-3): 4.986 and 4.27 and 4.693
- WT1 normalized gene expression (RPMI-8226, TCH-165 samples 1-3): 4.571 and 4.476 and 4.341
- XPA normalized gene expression (RPMI-8226, TCH-165 samples 1-3): 8.195 and 7.97 and 8.109
- XRCC4 normalized gene expression (RPMI-8226, TCH-165 samples 1-3): 8.283 and 8.506 and 8.426
- ZAK normalized gene expression (RPMI-8226, TCH-165 samples 1-3): 4.793 and 4.2133 and 4.238
- ZBTB16 normalized gene expression (RPMI-8226, TCH-165 samples 1-3): 2.986 and 2.891 and 3.0682
- ZBTB32 normalized gene expression (RPMI-8226, TCH-165 samples 1-3): 4.101 and 4.093 and 3.731
- ZIC2 normalized gene expression (RPMI-8226, TCH-165 samples 1-3): 4.86 and 4.154 and 4.291
- Normalized gene expression, ACVR1C [1]: 4.723 and 4.614 and 4.693
- Normalized gene expression, ALKBH2 [1]: 6.955 and 6.808 and 6.991
- Normalized gene expression, ALKBH3 [1]: 8.467 and 8.37 and 8.417
- Normalized gene expression, AMER1 [1]: 6.704 and 6.569 and 6.56
- Normalized gene expression, APH1B [1]: 6.101 and 5.7789 and 5.991
- Normalized gene expression, ARID1B [1]: 9.42 and 9.304 and 9.241
- Normalized gene expression, ARID2 [1]: 9.514 and 9.28 and 9.287
- Normalized gene expression, ASXL1 [1]: 9.934 and 9.758 and 9.627
- Normalized gene expression, BIRC7 [1]: 4.401 and 4.2133 and 4.0682
- Normalized gene expression, BMP8A [1]: 6.156 and 5.759 and 5.787
- Normalized gene expression, BRIP1 [1]: 8.576 and 8.341 and 8.466
- Normalized gene expression, CACNA2D3 [1]: 2.986 and 2.154 and 2.483
- Normalized gene expression, CACNA2D4 [1]: 4.793 and 4.739 and 4.291
- Normalized gene expression, CACNG6 [1]: 5.101 and 4.093 and 4.653
- Normalized gene expression, CALML6 [1]: 4.986 and 4.996 and 5.038
- Normalized gene expression, CARD11 [1]: 6.55 and 6.729 and 6.472
- Normalized gene expression, CASP12 [1]: 5.208 and 4.891 and 4.653
- Normalized gene expression, CCNB3 [1]: 2.401 and 3.3768 and 3.184
- Normalized gene expression, COL6A6 [1]: 3.986 and 4.324 and 4.184
- Normalized gene expression, COL24A1 [1]: 5.488 and 5.2133 and 5.316
- Normalized gene expression, COL27A1 [1]: 4.986 and 5.154 and 5.098
- Normalized gene expression, CREB3L1 [1]: 3.86 and 3.657 and 3.39
- Normalized gene expression, CREB3L3 [1]: 2.723 and 2.891 and 2.943
- Normalized gene expression, CREB3L4 [1]: 7.001 and 6.678 and 6.702
- Normalized gene expression, CRLF2 [1]: 5.723 and 5.798 and 5.75
- Normalized gene expression, CXXC4 [1]: 6.156 and 6.2133 and 5.858
- Normalized gene expression, DTX3 [1]: 3.986 and 4.2133 and 4.238
- Normalized gene expression, FAAP24 [1]: 7.343 and 7.012 and 7.17
- Normalized gene expression, FBXW7 [1]: 6.571 and 6.488 and 6.528
- Normalized gene expression, GDF6 [1]: 4.101 and 4.657 and 4.0068
- Normalized gene expression, GNG12 [1]: 4.793 and 4.855 and 4.693
- Normalized gene expression, H3F3C [1]: 12.4579 and 12.5235 and 12.4804
- Normalized gene expression, HDAC10 [1]: 8.066 and 7.808 and 7.722
- Normalized gene expression, HDAC11 [1]: 5.156 and 4.927 and 5.291
- Normalized gene expression, HES5 [1]: 6.355 and 5.657 and 5.893
- Normalized gene expression, HHIP [1]: 3.986 and 3.739 and 3.653
- Normalized gene expression, IL22RA1 [1]: 5.156 and 5.0613 and 5.316
- Normalized gene expression, IL22RA2 [1]: 5.445 and 4.817 and 4.437
- Normalized gene expression, IL23R [1]: 4.986 and 4.614 and 4.291
- Normalized gene expression, KMT2C [1]: 9.426 and 9.461 and 9.455
- Normalized gene expression, LAMA1 [1]: 4.986 and 4.27 and 4.184
- Normalized gene expression, MAML2 [1]: 8.948 and 9.039 and 8.92
- Normalized gene expression, NFKBIZ [1]: 7.259 and 6.9093 and 6.832
- Normalized gene expression, NKD1 [1]: 5.445 and 5.3768 and 5.437
- Normalized gene expression, NSD1 [1]: 7.758 and 7.832 and 7.75
- Normalized gene expression, PAK7 [1]: 2.986 and 3.891 and 3.39
- Normalized gene expression, PDGFC [1]: 6.509 and 6.415 and 6.1271
- Normalized gene expression, PDGFD [1]: 4.401 and 4.27 and 4.0068
- Normalized gene expression, PHF6 [1]: 9.829 and 9.914 and 9.8
- Normalized gene expression, PLA2G4E [1]: 3.86 and 4.029 and 4.0682
- Normalized gene expression, PLA2G4F [1]: 4.208 and 4.154 and 3.483
- Normalized gene expression, POLD4 [1]: 8.314 and 8.1355 and 8.194
- Normalized gene expression, PRMT8 [1]: 4.308 and 4.476 and 4.341
- Normalized gene expression, PTCRA [1]: 3.986 and 4.3768 and 4.238
- Normalized gene expression, PTPN5 [1]: 4.571 and 4.476 and 4.39
- Normalized gene expression, SHC4 [1]: 5.571 and 4.891 and 5.0068
- Normalized gene expression, SOX17 [1]: 4.101 and 4.154 and 3.483
- Normalized gene expression, SPRY4 [1]: 5.044 and 5.093 and 5.366
- Normalized gene expression, SUV39H2 [1]: 8.912 and 8.7789 and 8.832
- Normalized gene expression, TBL1XR1 [1]: 13.2408 and 13.1822 and 13.1378
- Normalized gene expression, TCF7L1 [1]: 5.101 and 4.739 and 5.461
- Normalized gene expression, THEM4 [1]: 7.581 and 7.249 and 7.3536
- Normalized gene expression, TNN [1]: 4.986 and 4.7789 and 4.39
- Normalized gene expression, TRAF7 [1]: 10.2015 and 10.0643 and 10.0175
- Normalized gene expression, TSLP [1]: 4.571 and 4.699 and 4.769
- Normalized gene expression, WNT5B [1]: 5.208 and 5.093 and 5.238
- Normalized gene expression, WNT10A [1]: 5.924 and 6.045 and 6.17
